The numbers were not newly measured in PubChem BioAssay AID1259409 (Chemical Carcinogenesis Research Information System (CCRIS), 2018), which cites them from elsewhere.

The series deals with rodent chemically induced tumor inhibition, incidence and multiplicity. The experiment in a line: CCRIS tumor inhibitor studies.

As for `c1cc2c(cc1[C@H]1OC[C@@H]3[C@H]1CO[C@H]3c1ccc3c(c1)OCO3)OCO2`, the “tumour outcome (control, treated, inhibition, significance)” value reads like this: (Carcinogen: 4-NITROQUINOLINE-N-OXIDE, 56-57-5, Dose [Inhibitor]: 0, 2.5 MG/100 ML DRINKING WATER (TOTAL WEEKLY DOSE 1.26 MG) FOR 25 WK BEGINNING 5 WK POST CARCINOGEN DOSE (STUDY DURATIO, Route [Inhibitor]: ORAL, Species: MOUSE, Strain/Sex: ICR/FEMALE, Target Tissue: Type of Lesion: LUNG: TUMOR, Dose [Carcinogen]: 0.3 MG ONCE, Promoter: GLYCEROL, 56-81-5) 87%, 47%, 46%, p<0.05; (Carcinogen: 7,12-DIMETHYLBENZ[A]ANTHRACENE, 57-97-6, Dose [Inhibitor]: 0, 85 NMOL IN 0.1 ML ACETONE 2/WK FOR 20 WK APPLIED 1 HR PRIOR TO EACH PROMOTER DOSE (STUDY DURATION: 20 WK), Route [Inhibitor]: DERMAL, Species: MOUSE, Strain/Sex: ICR/FEMALE, Target Tissue: Type of Lesion: SKIN: PAPILLOMA, Dose [Carcinogen]: 100 UG IN 0.1 ML ACETONE ONCE, Promoter: 12-O-TETRADECANOYLPHORBOL-13-ACETATE, 16561-29-8) 100%, 85%, 15%, not calculated.
Turning to `Cc1ccc(O)c(C(C)(C)C)c1`, the “tumour outcome (control, treated, inhibition, significance)” value is listed as 7/19 (37%), 5/19 (26%), 29%, not calculated (Carcinogen: 7,12-DIMETHYLBENZ[A]ANTHRACENE, 57-97-6, Dose [Inhibitor]: 1.0% IN POWDERED DIET BEGINNING 1 WK POST CARCINOGEN DOSE FOR 51 WK (STUDY DURATION: 52 WK), Route [Inhibitor]: ORAL, Species: RAT, Strain/Sex: SPRAGUE-DAWLEY/FEMALE, Target Tissue: Type of Lesion: EAR DUCT: BENIGN TUMOR, Dose [Carcinogen]: 2.5 MG/100 G BW IN 0.5 ML SESAME OIL ONCE, Promoter: NONE USED); 6/19 (32%), 6/19 (32%), 0%, not significant (Carcinogen: 7,12-DIMETHYLBENZ[A]ANTHRACENE, 57-97-6, Dose [Inhibitor]: 1.0% IN POWDERED DIET BEGINNING 1 WK POST CARCINOGEN DOSE FOR 51 WK (STUDY DURATION: 52 WK), Route [Inhibitor]: ORAL, Species: RAT, Strain/Sex: SPRAGUE-DAWLEY/FEMALE, Target Tissue: Type of Lesion: MAMMARY GLAND: CARCINOMA, Dose [Carcinogen]: 2.5 MG/100 G BW IN 0.5 ML SESAME OIL ONCE, Promoter: NONE USED); 15/19 (79%), 2/19 (11%), 87%, p<0.001 (Carcinogen: 7,12-DIMETHYLBENZ[A]ANTHRACENE, 57-97-6, Dose [Inhibitor]: 1.0% IN POWDERED DIET BEGINNING 1 WK POST CARCINOGEN DOSE FOR 51 WK (STUDY DURATION: 52 WK), Route [Inhibitor]: ORAL, Species: RAT, Strain/Sex: SPRAGUE-DAWLEY/FEMALE, Target Tissue: Type of Lesion: MAMMARY GLAND: FIBROADENOMA, Dose [Carcinogen]: 2.5 MG/100 G BW IN 0.5 ML SESAME OIL ONCE, Promoter: NONE USED).
